# Data from patent publication US8163779B2, “Glucokinase activators” (Takeda San Diego, Inc., priority 2006, dated 2012).
# Counter-ions that a name gives are not always drawn.
# Target: T1, glucokinase (GK) (Homo sapiens, UniProt P35557)
# T1 construct: I.D. No. 1 corresponds to residues 12-465 of glucokinase; made in house; host or cells: E. coli DH10b-T1r
# T1 sequence (P35557 with tags, fused parts or gaps isoform P35557-2): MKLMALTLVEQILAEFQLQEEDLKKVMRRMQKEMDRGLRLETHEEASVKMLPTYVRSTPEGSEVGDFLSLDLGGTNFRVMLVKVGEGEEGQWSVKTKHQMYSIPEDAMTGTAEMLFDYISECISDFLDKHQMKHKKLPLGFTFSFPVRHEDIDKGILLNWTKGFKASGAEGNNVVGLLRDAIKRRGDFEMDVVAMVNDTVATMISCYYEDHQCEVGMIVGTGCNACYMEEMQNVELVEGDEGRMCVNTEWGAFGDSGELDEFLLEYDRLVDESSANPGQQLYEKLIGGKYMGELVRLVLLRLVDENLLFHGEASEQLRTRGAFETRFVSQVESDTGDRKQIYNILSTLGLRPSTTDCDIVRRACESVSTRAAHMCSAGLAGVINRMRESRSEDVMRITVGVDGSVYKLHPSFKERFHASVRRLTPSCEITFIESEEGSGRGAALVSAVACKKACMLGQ
# Test: enzymatic glucokinase activity assay (ATP consumption, KinaseGlo luminescence)
# Format: biochemical
# Conditions: recombinant GK residues 12-465; 5 μM ATP, 5 mM Glucose; Kact = concentration that displays 50% of the maximal increase in GK activity; read-out: pKact
# Source text: The activity of compounds as glucokinase activators may be assayed in vitro, in vivo or in a cell line. Provided below is an enzymatic glucokinase activity assay.
# Purified glucokinase may be obtained as follows. […] SEQ.
# The expression of recombinant glucokinase protein may be carried out by transformation and growth of DH10b-T1r E. coli cells incorporating the (pFLAG-CTC) plasmid in LB media. Protein expression can be induced in this system by the addition of IPTG to the culture medium.
# Recombinant protein may be isolated from cellular extracts by passage over Sepharose Q Fast Flow resin (Pharmacia). This partially purified GK extract may then be further purified by a second passage over Poros HQ 10 (Applied Biosystems). The purity of GK may be determined on denaturing SDS-PAGE gel. Purified GK may then be concentrated to a final concentration of 20.0 mg/ml. After flash freezing in liquid nitrogen, the proteins can be stored at −78° C. in a buffer containing 25 mM TRIS-HCl pH 7.6, 50 mM NaCl, and 0.5 mM TCEP.
# The activation properties of compounds for GK may be determined using a black 384-well-plate format under the following reaction conditions: 25 mM Hepes pH 7.2, 25 mM NaCl, 10 mM MgCl2, 0.01% Brij35, 1 mM DTT, 5 μM ATP, 5 mM Glucose 2% DMSO. The amount of ATP consumed may be determined quantitatively by addition of equal volume of luciferase reagent (luciferase+beetle luciferin—KinaseGlo Luminescent Kinase Assay kit from Promega). The luminescence intensity may be measured by using the Analyst HT from LJL Biosystems.
# The reaction mixture may then be incubated at room temperature for 60 min, and quenched and developed by addition of 10 μL of luciferase reagent. Luminescence intensities of the resulting reaction mixtures may be measured after a 10 min incubation at room temperature. The luminescence intensity may be measured by using the Analyst HT from LJL Biosystems.
# pKact values may be calculated by non-linear curve fitting of the compound concentrations and luminescence intensities to a standard inhibition/activation equation.
row,Structure (SMILES),EC50 [µM]
1,"Cc1cc(S(=O)(=O)C2CCCC2)cc(=O)n1[C@@H](CC1CCOCC1)C(=O)Nc1ncc(Cl)s1 [Example 38, (S)-N-(5-chlorothiazol-2-yl)-2-(4-(cyclopentylsulfonyl)-6-methyl-2-oxopyridin-1(2H)-yl)-3-(tetrahydro-2H-pyran-4-yl)propanamide]",< 1.58
2,"CCCCC(C(=O)Nc1nccs1)n1c(C)cc(S(=O)(=O)C2CCCC2)cc1=O (stereo not shown) [Example 18, 2-(4-(cyclopentylsulfonyl)-6-methyl-2-oxopyridin-1(2H)-yl)-N-(thiazol-2-yl)hexanamide]",1.58 to 15.8
3,"Cc1cc(-c2cccc(C#N)c2)cc(=O)n1[C@@H](CC1CCCCC1)C(=O)Nc1nccs1 [Example 97, (S)-2-(4-(3-cyanophenyl)-6-methyl-2-oxopyridin-1(2H)-yl)-3-cyclohexyl-N-(thiazol-2-yl)propanamide]",> 15.8
4,"O=C(Nc1ncc(Cl)s1)[C@H](CC1CCOCC1)n1ccc(S(=O)(=O)C2CC2)cc1=O [Example 30, (S)-N-(5-chlorothiazol-2-yl)-2-(4-(cyclopropylsulfonyl)-2-oxopyridin-1(2H)-yl)-3-(tetrahydro-2H-pyran-4-yl)propanamide]",< 1.58
5,"CCS(=O)(=O)c1cc(C)n(C(CC2CCCCC2)C(=O)Nc2nccs2)c(=O)c1 (stereo not shown) [Example 4, 3-cyclohexyl-2-(4-(ethylsulfonyl)-6-methyl-2-oxopyridin-1(2H)-yl)-N-(thiazol-2-yl)propanamide trifluoroacetic acid salt]",1.58 to 15.8
6,"Cc1cc(-c2ccc(Cl)cc2)cc(=O)n1[C@@H](CC1CCCCC1)C(=O)Nc1nccs1 [Example 93, (S)-2-(4-(4-chlorophenyl)-6-methyl-2-oxopyridin-1(2H)-yl)-3-cyclohexyl-N-(thiazol-2-yl)propanamide]",> 15.8
7,"Cc1cc(S(=O)(=O)Cc2cccs2)cc(=O)n1[C@@H](CC1CCCCC1)C(=O)Nc1ncc(Cl)s1 [Example 85, (S)-N-(5-chlorothiazol-2-yl)-3-cyclohexyl-2-(6-methyl-2-oxo-4-(thiophen-2-ylmethylsulfonyl)pyridin-1(2H)-yl)propanamide]",< 1.58
8,"Cc1cc(S(=O)(=O)C2CCCC2)cc(=O)n1C(CC1CCCCC1)C(=O)Nc1ncc(CN2CCOCC2)s1 (stereo not shown) [Example 89, 3-cyclohexyl-2-(4-(cyclopentylsulfonyl)-6-methyl-2-oxopyridin-1(2H)-yl)-N-(5-(morpholinomethyl)thiazol-2-yl)propanamide]",< 1.58
9,"Cc1cc(S(=O)(=O)C2CC2)c(Cl)c(=O)n1[C@H](CC1CCCCC1)C(=O)Nc1ncc(Cl)s1 [Example 78, (R)-2-(3-chloro-4-(cyclopropylsulfonyl)-6-methyl-2-oxopyridin-1(2H)-yl)-N-(5-chlorothiazol-2-yl)-3-cyclohexylpropanamide]",1.58 to 15.8
10,"Cc1cc(S(=O)(=O)C2CCCC2)cc(=O)n1C(CCC(C)C)C(=O)Nc1nccs1 (stereo not shown) [Example 19, 2-(4-(cyclopentylsulfonyl)-6-methyl-2-oxopyridin-1(2H)-yl)-5-methyl-N-(thiazol-2-yl)hexanamide]",1.58 to 15.8
11,"O=C(Nc1ncc(Cl)s1)[C@@H](CC1CCOCC1)n1ccc(S(=O)(=O)C2CC2)cc1=O [Example 29, (R)-N-(5-chlorothiazol-2-yl)-2-(4-(cyclopropylsulfonyl)-2-oxopyridin-1(2H)-yl)-3-(tetrahydro-2H-pyran-4-yl)propanamide]",> 15.8
12,"Cc1cc(S(C)(=O)=O)cc(=O)n1C(CC1CCCCC1)C(=O)Nc1nccs1 (stereo not shown) [Example 3, 3-cyclohexyl-2-(6-methyl-4-(methylsulfonyl)-2-oxopyridin-1(2H)-yl)-N-(thiazol-2-yl)propanamide trifluoroacetic acid salt]",1.58 to 15.8
13,"O=C(Nc1nc2cccnc2s1)[C@H](CC1CCOCC1)n1ccc(S(=O)(=O)C2CC2)cc1=O [Example 52, (S)-2-(4-(cyclopropylsulfonyl)-2-oxopyridin-1(2H)-yl)-3-(tetrahydro-2H-pyran-4-yl)-N-(thiazolo[5,4-b]pyridin-2-yl)propanamide]",1.58 to 15.8
14,"O=C(Nc1ncc(F)s1)[C@@H](CC1CCOCC1)n1ccc(S(=O)(=O)C2CC2)cc1=O [Example 36, (R)-2-(4-(cyclopropylsulfonyl)-2-oxopyridin-1(2H)-yl)-N-(5-fluorothiazol-2-yl)-3-(tetrahydro-2H-pyran-4-yl)propanamide]",> 15.8
15,"CS(=O)(=O)c1ccn([C@@H](CC2CCOCC2)C(=O)Nc2ncc(Cl)s2)c(=O)c1 [Example 23, (S)-N-(5-chlorothiazol-2-yl)-2-(4-(methylsulfonyl)-2-oxopyridin-1(2H)-yl)-3-(tetrahydro-2H-pyran-4-yl)propanamide]",1.58 to 15.8

# The remaining lines, values ahead:
row,EC50 [µM],Structure (SMILES)
1,> 15.8,"Cc1cc(-c2cccc(F)c2)cc(=O)n1[C@@H](CC1CCCCC1)C(=O)Nc1nccs1 [Example 109, (S)-3-cyclohexyl-2-(4-(3-fluorophenyl)-6-methyl-2-oxopyridin-1(2H)-yl)-N-(thiazol-2-yl)propanamide]"
2,1.58 to 15.8,"COCCC(C)(C)S(=O)(=O)c1ccn([C@@H](CC2CCOCC2)C(=O)Nc2nc3ccc(OC)nc3s2)c(=O)c1 [Example 121, (S)-2-(4-(4-methoxy-2-methylbutan-2-ylsulfonyl)-2-oxopyridin-1(2H)-yl)-N-(5-methoxythiazolo[5,4-b]pyridin-2-yl)-3-(tetrahydro-2H-pyran-4-yl)propanamide]"
3,1.58 to 15.8,"O=C(Nc1ncc(Cl)s1)C(CC1CCOCC1)n1cc(Cl)c(S(=O)(=O)C2CC2)cc1=O (stereo not shown) [Example 179, 2-(5-chloro-4-(cyclopropylsulfonyl)-2-oxopyridin-1(2H)-yl)-N-(5-chlorothiazol-2-yl)-3-(tetrahydro-2H-pyran-4-yl)propanamide]"
4,< 1.58,"Cc1cc(S(=O)(=O)Cc2cccs2)cc(=O)n1C(CC1CCOCC1)C(=O)Nc1ncc(Cl)s1 (stereo not shown) [Example 134, N-(5-chlorothiazol-2-yl)-2-(6-methyl-2-oxo-4-(thiophen-2-ylmethylsulfonyl)pyridin-1(2H)-yl)-3-(tetrahydro-2H-pyran-4-yl)propanamide]"
5,1.58 to 15.8,"Cc1cc(S(=O)(=O)C2CC2)cc(=O)n1[C@@H](CC1CCCC1)C(=O)Nc1ccc(C(N)=O)cn1 [Example 180, (S)-6-(3-cyclopentyl-2-(4-(cyclopropylsulfonyl)-6-methyl-2-oxopyridin-1(2H)-yl)propanamido)nicotinamide]"
6,> 15.8,"COc1ccc2nc(NC(=O)C(CC3CCOCC3)n3ccc(N4CC[C@H](O)C4)cc3=O)sc2n1 (stereo partly drawn) [Example 125, 2-(4-((S)-3-hydroxypyrrolidin-1-yl)-2-oxopyridin-1(2H)-yl)-N-(5-methoxythiazolo[5,4-b]pyridin-2-yl)-3-(tetrahydro-2H-pyran-4-yl)propanamide]"
7,1.58 to 15.8,"COC(C)(C)c1cnc(NC(=O)[C@@H](CC2CCOCC2)n2ccc(S(=O)(=O)C3CC3)cc2=O)s1 [Example 132, (R)-2-(4-(cyclopropylsulfonyl)-2-oxopyridin-1(2H)-yl)-N-(5-(2-methoxypropan-2-yl)thiazol-2-yl)-3-(tetrahydro-2H-pyran-4-yl)propanamide]"
8,1.58 to 15.8,"O=C(Nc1ncc(F)s1)[C@H](CC1CCOCC1)n1cc(Cl)c(S(=O)(=O)C2CC2)cc1=O [Example 198, (S)-2-(5-chloro-4-(cyclopropylsulfonyl)-2-oxopyridin-1(2H)-yl)-N-(5-fluorothiazol-2-yl)-3-(tetrahydro-2H-pyran-4-yl)propanamide]"
9,< 1.58,"Cc1cc(S(=O)(=O)C2CC2)cc(=O)n1[C@@H](CC1CCOCC1)C(=O)Nc1ncc(Cl)s1 [Example 172, (S)-N-(5-chlorothiazol-2-yl)-2-(4-(cyclopropylsulfonyl)-6-methyl-2-oxopyridin-1(2H)-yl)-3-(tetrahydro-2H-pyran-4-yl)propanamide]"
10,1.58 to 15.8,"Cc1cc(S(=O)(=O)C2CCOCC2)cc(=O)n1[C@@H](CC1CCCC1)C(=O)Nc1ncc(Cl)s1 [Example 191, (S)-N-(5-chlorothiazol-2-yl)-3-cyclopentyl-2-(6-methyl-2-oxo-4-(tetrahydro-2H-pyran-4-ylsulfonyl)pyridin-1(2H)-yl)propanamide]"
